Assay results taken from patent publication US8283361B2 (AstraZeneca AB, priority 2008, dated 2012).
≈ marks a conversion by molar mass, not a printed value.

Molecular target: S. aureus GyrB ATPase (Staphylococcus aureus, UniProt P0A0K8)
Assay: biochemical
Conditions: compound at 1 μM; one value per test if tested more than once; read-out: % Inhibition of S. aureus GyrB ATPase
Summary of the method: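 IC50 values derive from 10-point titrations of compound (in DMSO). Phosphate formed from 250 μM ATP was quantified by acidic molybdate/malachite green after quenching.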

S. aureus GyrB ATPase, sequence (P0A0K8 whole entry): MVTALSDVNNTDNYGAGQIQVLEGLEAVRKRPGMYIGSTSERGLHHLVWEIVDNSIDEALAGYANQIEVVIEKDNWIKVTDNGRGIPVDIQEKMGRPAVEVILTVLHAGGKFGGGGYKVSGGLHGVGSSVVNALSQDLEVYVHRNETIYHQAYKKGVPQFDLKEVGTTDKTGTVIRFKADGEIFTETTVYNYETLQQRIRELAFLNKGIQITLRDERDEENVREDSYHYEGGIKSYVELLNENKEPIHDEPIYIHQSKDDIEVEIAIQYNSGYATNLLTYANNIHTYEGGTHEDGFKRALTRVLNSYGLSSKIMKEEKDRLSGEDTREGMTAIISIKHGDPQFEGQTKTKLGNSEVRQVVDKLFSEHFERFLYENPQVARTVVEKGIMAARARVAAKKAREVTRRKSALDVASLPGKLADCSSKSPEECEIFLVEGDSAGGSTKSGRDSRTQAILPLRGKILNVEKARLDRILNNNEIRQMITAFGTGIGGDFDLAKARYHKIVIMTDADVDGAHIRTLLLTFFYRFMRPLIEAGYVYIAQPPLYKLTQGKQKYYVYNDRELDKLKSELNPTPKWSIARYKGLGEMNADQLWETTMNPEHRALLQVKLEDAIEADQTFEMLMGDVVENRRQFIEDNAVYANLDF
S. aureus GyrB ATPase, sequence (P0AES4 whole entry, further chain): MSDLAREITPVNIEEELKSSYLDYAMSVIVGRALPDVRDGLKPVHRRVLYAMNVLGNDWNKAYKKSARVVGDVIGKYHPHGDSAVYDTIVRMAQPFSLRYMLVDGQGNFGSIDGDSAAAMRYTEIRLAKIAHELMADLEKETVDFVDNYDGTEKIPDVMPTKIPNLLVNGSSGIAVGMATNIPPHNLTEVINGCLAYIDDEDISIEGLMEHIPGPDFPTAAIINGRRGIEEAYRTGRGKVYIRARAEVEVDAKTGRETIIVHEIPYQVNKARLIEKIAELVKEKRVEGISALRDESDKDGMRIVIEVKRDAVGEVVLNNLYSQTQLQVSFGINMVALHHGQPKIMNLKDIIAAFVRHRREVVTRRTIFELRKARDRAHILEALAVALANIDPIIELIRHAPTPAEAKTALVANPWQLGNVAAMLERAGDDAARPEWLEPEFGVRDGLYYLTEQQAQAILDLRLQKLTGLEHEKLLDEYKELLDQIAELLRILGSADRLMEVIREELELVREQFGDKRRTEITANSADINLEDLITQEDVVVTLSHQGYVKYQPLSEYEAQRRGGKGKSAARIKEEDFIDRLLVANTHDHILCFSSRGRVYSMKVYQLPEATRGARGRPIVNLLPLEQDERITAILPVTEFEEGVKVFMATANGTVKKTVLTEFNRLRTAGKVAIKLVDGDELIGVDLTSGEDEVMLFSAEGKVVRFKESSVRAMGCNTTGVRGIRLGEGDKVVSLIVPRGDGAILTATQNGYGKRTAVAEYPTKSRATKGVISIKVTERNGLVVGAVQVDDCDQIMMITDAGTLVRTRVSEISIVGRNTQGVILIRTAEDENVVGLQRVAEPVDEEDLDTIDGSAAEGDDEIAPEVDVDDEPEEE

| Compound | inhibition at 1 µM |
| --- | --- |
| CCNC(=O)Nc1cc(-c2nc(C(F)(F)F)cs2)c(-c2ccc3c(=O)c(C(=O)O)cn(CC)c3c2)cn1 [Example 9, 1-ethyl-7-(6-(3-ethylureido)-4-(4-trifluoromethylthiazol-2-yl)pyridin-3-yl)-4-oxo-1,4-dihydroquinoline-3-carboxylic acid] | 106% |
| CCNC(=O)Nc1cc(-c2nc(C(F)(F)F)cs2)c(-c2ccc3c(=O)c(C(=O)NCCN4CCN(C)CC4)cn(Cc4ccccc4)c3c2)cn1 [Example 358, 1-Benzyl-7-{6-[(ethylcarbamoyl)amino]-4-[4-(trifluoromethyl)-1,3-thiazol-2-yl]pyridin-3-yl}-N-[2-(4-methylpiperazin-1-yl)ethyl]-4-oxo-1,4-dihydroquinoline-3-carboxamide] | 95% |
| CCNC(=O)Nc1cc(-c2nc(C(F)(F)F)cs2)c(-c2ccc3c(=O)c(C(=O)NCCCO)cn(Cc4cccnc4)c3c2)cn1 [Example 359, 7-{6-[(ethylcarbamoyl)amino]-4-[4-(trifluoromethyl)-1,3-thiazol-2-yl]pyridin-3-yl}-N-(3-hydroxypropyl)-4-oxo-1-(pyridin-3-ylmethyl)-1,4-dihydroquinoline-3-carboxamide] | 92% |
| CCNC(=O)Nc1cc(-c2nc(C(F)(F)F)cs2)c(-c2ccc3c(=O)c(C(=O)NCCN4CCOCC4)cn(Cc4cccnc4)c3c2)cn1 [Example 361, 7-{6-[(ethylcarbamoyl)amino]-4-[4-(trifluoromethyl)-1,3-thiazol-2-yl]pyridin-3-yl}-N-[2-(morpholin-4-yl)ethyl]-4-oxo-1-(pyridin-3-ylmethyl)-1,4-dihydroquinoline-3-carboxamide] | 97% |
| CCNC(=O)Nc1cc(-c2nc(C(F)(F)F)cs2)c(-c2ccc3c(=O)c(C(=O)NCCN4CCN(C)CC4)cn(Cc4cccnc4)c3c2)cn1 [Example 362, 7-{6-[(ethylcarbamoyl)amino]-4-[4-(trifluoromethyl)-1,3-thiazol-2-yl]pyridin-3-yl}-N-[2-(4-methylpiperazin-1-yl)ethyl]-4-oxo-1-(pyridin-3-ylmethyl)-1,4-dihydroquinoline-3-carboxamide] | 94% |
| CCNC(=O)Nc1cc(-c2nc(C(F)(F)F)cs2)c(-c2ccc3c(=O)c(C(=O)NC)cn(CCO)c3c2)cn1 [Example 363, 7-{6-[(Ethylcarbamoyl)amino]-4-[4-(trifluoromethyl)-1,3-thiazol-2-yl]pyridin-3-yl}-1-(2-hydroxyethyl)-N-methyl-4-oxo-1,4-dihydroquinoline-3-carboxamide] | 95% |
| CCNC(=O)Nc1cc(-c2nc(C(F)(F)F)cs2)c(-c2ccc3c(=O)c(C(=O)NCCO)cn(CCO)c3c2)cn1 [Example 364, 7-{6-[(Ethylcarbamoyl)amino]-4-[4-(trifluoromethyl)-1,3-thiazol-2-yl]pyridin-3-yl}-N,1-bis(2-hydroxyethyl)-4-oxo-1,4-dihydroquinoline-3-carboxamide] | 97% |
| CCNC(=O)Nc1cc(-c2nc(C(F)(F)F)cs2)c(-c2ccc3c(=O)c(C(=O)NCCCO)cn(CCO)c3c2)cn1 [Example 365, 7-{6-[(ethylcarbamoyl)amino]-4-[4-(trifluoromethyl)-1,3-thiazol-2-yl]pyridin-3-yl}-1-(2-hydroxyethyl)-N-(3-hydroxypropyl)-4-oxo-1,4-dihydroquinoline-3-carboxamide] | 99% |
| CCNC(=O)Nc1cc(-c2nc(C(F)(F)F)cs2)c(-c2ccc3c(=O)c(C(=O)NCCN(C)C)cn(CCO)c3c2)cn1 [Example 366, N-[2-(dimethylamino)ethyl]-7-{6-[(ethylcarbamoyl)amino]-4-[4-(trifluoromethyl)-1,3-thiazol-2-yl]pyridin-3-yl}-1-(2-hydroxyethyl)-4-oxo-1,4-dihydroquinoline-3-carboxamide] | 99% |
| CCNC(=O)Nc1cc(-c2nc(C(F)(F)F)cs2)c(-c2ccc3c(=O)c(C(=O)NCCN4CCOCC4)cn(CCO)c3c2)cn1 [Example 367, 7-{6-[(ethylcarbamoyl)amino]-4-[4-(trifluoromethyl)-1,3-thiazol-2-yl]pyridin-3-yl}-1-(2-hydroxyethyl)-N-[2-(morpholin-4-yl)ethyl]-4-oxo-1,4-dihydroquinoline-3-carboxamide] | 100% |
| CCNC(=O)Nc1cc(-c2nc(C(F)(F)F)cs2)c(-c2ccc3c(=O)c(C(=O)NCCN4CCN(C)CC4)cn(CCO)c3c2)cn1 [Example 368, 7-{6-[(Ethylcarbamoyl)amino]-4-[4-(trifluoromethyl)-1,3-thiazol-2-yl]pyridin-3-yl}-1-(2-hydroxyethyl)-N-[2-(4-methylpiperazin-1-yl)ethyl]-4-oxo-1,4-dihydroquinoline-3-carboxamide] | 87% |
| CCNC(=O)Nc1cc(-c2nc(C(F)(F)F)cs2)c(-c2ccc3c(=O)c(C(=O)NC)cn(CCOC)c3c2)cn1 [Example 369, 7-{6-[(Ethylcarbamoyl)amino]-4-[4-(trifluoromethyl)-1,3-thiazol-2-yl]pyridin-3-yl}-1-(2-methoxyethyl)-N-methyl-4-oxo-1,4-dihydroquinoline-3-carboxamide] | 97% |
| CCNC(=O)Nc1cc(-c2nc(C(F)(F)F)cs2)c(-c2ccc3c(=O)c(C(=O)NCCO)cn(CCOC)c3c2)cn1 [Example 370, 7-{6-[(Ethylcarbamoyl)amino]-4-[4-(trifluoromethyl)-1,3-thiazol-2-yl]pyridin-3-yl}-N-(2-hydroxyethyl)-1-(2-methoxyethyl)-4-oxo-1,4-dihydroquinoline-3-carboxamide] | 98% |
| CCNC(=O)Nc1cc(-c2nc(C(F)(F)F)cs2)c(-c2ccc3c(=O)c(C(=O)NCCCO)cn(CCOC)c3c2)cn1 [Example 371, 7-{6-[(Ethylcarbamoyl)amino]-4-[4-(trifluoromethyl)-1,3-thiazol-2-yl]pyridin-3-yl}-N-(3-hydroxypropyl)-1-(2-methoxyethyl)-4-oxo-1,4-dihydroquinoline-3-carboxamide] | 98% |
| CCNC(=O)Nc1cc(-c2nc(C(F)(F)F)cs2)c(-c2ccc3c(=O)c(C(=O)NCCN(C)C)cn(CCOC)c3c2)cn1 [Example 372, N-[2-(dimethylamino)ethyl]-7-{6-[(ethylcarbamoyl)amino]-4-[4-(trifluoromethyl)-1,3-thiazol-2-yl]pyridin-3-yl}-1-(2-methoxyethyl)-4-oxo-1,4-dihydroquinoline-3-carboxamide] | 98% |
| CCNC(=O)Nc1cc(-c2nc(C(F)(F)F)cs2)c(-c2ccc3c(=O)c(C(=O)NCCN4CCN(C)CC4)cn(CCOC)c3c2)cn1 [Example 373, 7-{6-[(Ethylcarbamoyl)amino]-4-[4-(trifluoromethyl)-1,3-thiazol-2-yl]pyridin-3-yl}-1-(2-methoxyethyl)-N-[2-(4-methylpiperazin-1-yl)ethyl]-4-oxo-1,4-dihydroquinoline-3-carboxamide] | 94% |
| CCNC(=O)Nc1cc(-c2nc(C(F)(F)F)cs2)c(-c2ccc3c(=O)c(C(=O)NC)cn(CC4CC4)c3c2)cn1 [Example 374, 1-(Cyclopropylmethyl)-7-{6-[(ethylcarbamoyl)amino]-4-[4-(trifluoromethyl)-1,3-thiazol-2-yl]pyridin-3-yl}-N-methyl-4-oxo-1,4-dihydroquinoline-3-carboxamide] | 86% |
| CCNC(=O)Nc1cc(-c2nc(C(F)(F)F)cs2)c(-c2ccc3c(=O)c(C(=O)NCCO)cn(CC4CC4)c3c2)cn1 [Example 375, 1-(Cyclopropylmethyl)-7-{6-[(ethylcarbamoyl)amino]-4-[4-(trifluoromethyl)-1,3-thiazol-2-yl]pyridin-3-yl}-N-(2-hydroxyethyl)-4-oxo-1,4-dihydroquinoline-3-carboxamide] | 99% |
| CCNC(=O)Nc1cc(-c2nc(C(F)(F)F)cs2)c(-c2ccc3c(=O)c(C(=O)NCCCO)cn(CC4CC4)c3c2)cn1 [Example 376, 1-(Cyclopropylmethyl)-7-{6-[(ethylcarbamoyl)amino]-4-[4-(trifluoromethyl)-1,3-thiazol-2-yl]pyridin-3-yl}-N-(3-hydroxypropyl)-4-oxo-1,4-dihydroquinoline-3-carboxamide] | 108% |
| CCNC(=O)Nc1cc(-c2nc(C(F)(F)F)cs2)c(-c2ccc3c(=O)c(C(=O)NCCN(C)C)cn(CC4CC4)c3c2)cn1 [Example 377, 1-(Cyclopropylmethyl)-N-[2-(dimethylamino)ethyl]-7-{6-[(ethylcarbamoyl)amino]-4-[4-(trifluoromethyl)-1,3-thiazol-2-yl]pyridin-3-yl}-4-oxo-1,4-dihydroquinoline-3-carboxamide] | 106% |
| CCNC(=O)Nc1cc(-c2nc(C(F)(F)F)cs2)c(-c2ccc3c(=O)c(C(=O)NCCN4CCOCC4)cn(CC4CC4)c3c2)cn1 [Example 378, 1-(Cyclopropylmethyl)-7-{6-[(ethylcarbamoyl)amino]-4-[4-(trifluoromethyl)-1,3-thiazol-2-yl]pyridin-3-yl}-N-[2-(morpholin-4-yl)ethyl]-4-oxo-1,4-dihydroquinoline-3-carboxamide] | 107% |
| CCNC(=O)Nc1cc(-c2nc(C(F)(F)F)cs2)c(-c2ccc3c(=O)c(C(=O)NCCN4CCN(C)CC4)cn(CC4CC4)c3c2)cn1 [Example 379, 1-(Cyclopropylmethyl)-7-{6-[(ethylcarbamoyl)amino]-4-[4-(trifluoromethyl)-1,3-thiazol-2-yl]pyridin-3-yl}-N-[2-(4-methylpiperazin-1-yl)ethyl]-4-oxo-1,4-dihydroquinoline-3-carboxamide] | 97% |

Test system: Streptococcus pneumoniae
Assay: Bacterial susceptibility testing in liquid media (MIC)
Assay type: cell-based
Conditions: against Streptococcus pneumoniae; lowest concentration reducing growth by 80% or more
Description: Compounds may be tested for antimicrobial activity by susceptibility testing in liquid media. Compounds may be dissolved in dimethylsulfoxide and tested in 10 doubling dilutions in the susceptibility assays. The organisms used in the assay may be grown overnight on suitable agar media and then suspended in a liquid medium appropriate for the growth of the organism. The suspension can be a 0.5 McFarland and a further 1 in 10 dilution can be made into the same liquid medium to prepare the final organism suspension in 100 μL. Plates can be incubated under appropriate conditions at 37° C. for 24 hrs prior to reading. The Minimum Inhibitory Concentration (MIC) may be determined as the lowest drug concentration able to reduce growth by 80% or more.

| Compound | MIC |
| --- | --- |
| CCNC(=O)Nc1cc(-c2nc(C(F)(F)F)cs2)c(-c2ccc3c(=O)c(C(=O)O)cn(CC)c3c2)cn1 [Example 9, 1-ethyl-7-(6-(3-ethylureido)-4-(4-trifluoromethylthiazol-2-yl)pyridin-3-yl)-4-oxo-1,4-dihydroquinoline-3-carboxylic acid] | 0.02 µM (≈ 0.0106 µg/mL) |
